{"source": "patent US4147787A", "about": "“4,5,6,7-Tetrahydro-thieno[2,3-c]-and [3,2-c]-pyridines, and therapeutic compositions containing the same” (Parcor, priority 1977, dated 1979)", "key": {"[1]": {"assay": "Acute toxicity (LD50, method according to Miller and Tainter)", "conditions": "mouse, in vivo, mice, intravenous, read-out: LD50 /24h/kg body weight"}, "[2]": {"system": "A.D.P. induced blood-platelet aggregation", "assay": "A.D.P. induced blood-platelet aggregation", "format": "in vivo, Wistar rats", "conditions": "Rattus norvegicus, po; 100 mg/kg orally, rats, 3 hours after treatment, 10 μM A.D.P. solution; read-out: Percent inhibition of blood-platelet aggregation, A.D.P.", "protocol": "(§1) A blood sample is taken from the jugular vein of Wistar rats. From this citrated blood and after centifugation, a plasma is reconstituted which contains 600,000 ± 20,000 blood-platelets per ml, which plasma is then used in all aggregation determinations.\n(§2) 0.4 ml plasma is placed in a siliconized tube provided with a magnet bar, also siliconized. The tube is introduced into an aggregometer connected to an apparatus which records optical density variations. When light transmission has attained a stable value, 0.5 ml of a solution containing 10 μM A.D.P. (adenosinediphosphate) is added to the tube.\n(§3) Blood-platelet aggregation induces an increase of light transmission, followed by a decrease subsequent to the deaggregation phase.\n(§4) Different groups of 20 rats each are used, each group being orally administered 100 mg/kg of a test derivative."}, "[3]": {"system": "Collagen-induced blood-platelet aggregation", "assay": "Collagen-induced blood-platelet aggregation", "format": "in vivo, Wistar rats", "conditions": "Rattus norvegicus, po; 100 mg/kg orally, rats, 3 hours after treatment; read-out: Percent inhibition of blood-platelet aggregation, Collagen", "protocol": "as §1, §2, §3\nThe A.D.P. solution is substituted with a collagen (bovine tendon extract) solution.\nas §4"}, "[4]": {"system": "rat globules (red corpuscles)", "assay": "In vitro anti-sludge activity, curative procedure (protamine sulfate)", "format": "cell-based", "conditions": "25 μg", "protocol": "(§5) Said activity was investigated in vitro and in vivo in rats.\n(§6) Thrice washed rat globules are diluted to 1/250 in physiological saline. In each of 5 tubes are placed 0.6 ml of this suspension and 0.2 ml physiological saline. To each tube is then added 0-25-50-100 and 200 μg, respectively, of the test derivative contained in 0.2 ml solution. After incubation for one hour at 37° C., 0.2 ml of a solution containing 125 μg/ml protamine sulfate are added, after which the tube is then incubated again for 0.5 hour at 37° C. The globules of each tube are then examined with a Mallases cell, and the percent free globules and the percent aggregates formed by 2, 3, 4, 5 etc.. globules is then recorded.\nThe experiment was repeated according to a \"curvative\" procedure; the red corpuscles were first contacted with protamine sulfate and, after incubation for 0.5 hour, 0.2 ml containing 25 μg of test derivative were added thereto, which operation is followed by another incubation for one hour at 37° C. The results obtained are reported in Table III, in which the percent agglomerates as a function of size is indicated."}, "[5]": {"system": "rat globules (red corpuscles)", "assay": "In vitro anti-sludge activity, preventive treatment (protamine sulfate)", "format": "cell-based", "protocol": "as §5, §6"}}, "data": [{"smiles": "O=C(O)C1Cc2sccc2CN1", "note": "(centres unmarked) [Example 2, 6-Carboxy-4,5,6,7-tetrahydro-thieno[3,2-c]pyridine]", "values": [{"measurement": "LD50 at 24 h", "setting": "[1]", "value": 235, "unit": "mg/kg"}]}, {"smiles": "O=C(OCc1ccccc1Cl)C1Cc2sccc2CN1Cc1ccccc1Cl", "note": "(centres unmarked) [Example 13, 5-o-Chlorobenzyl-6-o-chlorobenzyloxycarbonyl-4,5,6,7-tetrahydro-thieno[3,2-c]pyridine]", "values": [{"measurement": "inhibition at 100 mg/kg", "setting": "[2]", "value": 64.4, "unit": "%"}, {"measurement": "inhibition at 100 mg/kg", "setting": "[3]", "value": 96.1, "unit": "%"}, {"measurement": "percent agglomerates, size 2", "setting": "[4]", "value": 9, "unit": "%"}, {"measurement": "percent agglomerates, size 3", "setting": "[4]", "value": 5, "unit": "%"}, {"measurement": "percent agglomerates, size 4", "setting": "[4]", "value": 0, "unit": "%"}, {"measurement": "percent agglomerates, size 5", "setting": "[4]", "value": 0, "unit": "%"}, {"measurement": "percent agglomerates, size 6", "setting": "[4]", "value": 0, "unit": "%"}, {"measurement": "percent agglomerates, size 7", "setting": "[4]", "value": 0, "unit": "%"}, {"measurement": "percent agglomerates, size 8", "setting": "[4]", "value": 0, "unit": "%"}, {"measurement": "percent agglomerates, size 9", "setting": "[4]", "value": 0, "unit": "%"}, {"measurement": "percent agglomerates, size 10", "setting": "[4]", "value": 0, "unit": "%"}, {"measurement": "percent free red corpuscles (size of agglomerates 1)", "setting": "[4]", "value": 86, "unit": "%"}, {"measurement": "percent agglomerates, size 2", "setting": "[5]; 25 μg", "value": 26, "unit": "%"}, {"measurement": "percent agglomerates, size 3", "setting": "[5]; 25 μg", "value": 9, "unit": "%"}, {"measurement": "percent agglomerates, size 4", "setting": "[5]; 25 μg", "value": 0, "unit": "%"}, {"measurement": "percent agglomerates, size 5", "setting": "[5]; 25 μg", "value": 0, "unit": "%"}, {"measurement": "percent agglomerates, size 6", "setting": "[5]; 25 μg", "value": 0, "unit": "%"}, {"measurement": "percent agglomerates, size 7", "setting": "[5]; 25 μg", "value": 0, "unit": "%"}, {"measurement": "percent agglomerates, size 8", "setting": "[5]; 25 μg", "value": 0, "unit": "%"}, {"measurement": "percent agglomerates, size 9", "setting": "[5]; 25 μg", "value": 0, "unit": "%"}, {"measurement": "percent agglomerates, size 10", "setting": "[5]; 25 μg", "value": 0, "unit": "%"}, {"measurement": "percent agglomerates, size 11", "setting": "[5]; 25 μg", "value": 0, "unit": "%"}, {"measurement": "percent agglomerates, size 12", "setting": "[5]; 25 μg", "value": 0, "unit": "%"}, {"measurement": "percent agglomerates, size 13", "setting": "[5]; 25 μg", "value": 0, "unit": "%"}, {"measurement": "percent free red corpuscles (size of agglomerates 1)", "setting": "[5]; 25 μg", "value": 65, "unit": "%"}, {"measurement": "percent agglomerates, size 2", "setting": "[5]; 50 μg", "value": 23, "unit": "%"}, {"measurement": "percent agglomerates, size 3", "setting": "[5]; 50 μg", "value": 5, "unit": "%"}, {"measurement": "percent agglomerates, size 4", "setting": "[5]; 50 μg", "value": 4, "unit": "%"}, {"measurement": "percent agglomerates, size 5", "setting": "[5]; 50 μg", "value": 0, "unit": "%"}, {"measurement": "percent agglomerates, size 6", "setting": "[5]; 50 μg", "value": 0, "unit": "%"}, {"measurement": "percent agglomerates, size 7", "setting": "[5]; 50 μg", "value": 0, "unit": "%"}, {"measurement": "percent agglomerates, size 8", "setting": "[5]; 50 μg", "value": 0, "unit": "%"}, {"measurement": "percent agglomerates, size 9", "setting": "[5]; 50 μg", "value": 0, "unit": "%"}, {"measurement": "percent agglomerates, size 10", "setting": "[5]; 50 μg", "value": 0, "unit": "%"}, {"measurement": "percent agglomerates, size 11", "setting": "[5]; 50 μg", "value": 0, "unit": "%"}, {"measurement": "percent agglomerates, size 12", "setting": "[5]; 50 μg", "value": 0, "unit": "%"}, {"measurement": "percent agglomerates, size 13", "setting": "[5]; 50 μg", "value": 0, "unit": "%"}, {"measurement": "percent free red corpuscles (size of agglomerates 1)", "setting": "[5]; 50 μg", "value": 68, "unit": "%"}, {"measurement": "percent agglomerates, size 2", "setting": "[5]; 100 μg", "value": 8, "unit": "%"}, {"measurement": "percent agglomerates, size 3", "setting": "[5]; 100 μg", "value": 3, "unit": "%"}, {"measurement": "percent agglomerates, size 4", "setting": "[5]; 100 μg", "value": 2, "unit": "%"}, {"measurement": "percent agglomerates, size 5", "setting": "[5]; 100 μg", "value": 0, "unit": "%"}, {"measurement": "percent agglomerates, size 6", "setting": "[5]; 100 μg", "value": 0, "unit": "%"}, {"measurement": "percent agglomerates, size 7", "setting": "[5]; 100 μg", "value": 0, "unit": "%"}, {"measurement": "percent agglomerates, size 8", "setting": "[5]; 100 μg", "value": 0, "unit": "%"}, {"measurement": "percent agglomerates, size 9", "setting": "[5]; 100 μg", "value": 0, "unit": "%"}, {"measurement": "percent agglomerates, size 10", "setting": "[5]; 100 μg", "value": 0, "unit": "%"}, {"measurement": "percent agglomerates, size 11", "setting": "[5]; 100 μg", "value": 0, "unit": "%"}, {"measurement": "percent agglomerates, size 12", "setting": "[5]; 100 μg", "value": 0, "unit": "%"}, {"measurement": "percent agglomerates, size 13", "setting": "[5]; 100 μg", "value": 0, "unit": "%"}, {"measurement": "percent free red corpuscles (size of agglomerates 1)", "setting": "[5]; 100 μg", "value": 87, "unit": "%"}, {"measurement": "percent agglomerates, size 2", "setting": "[5]; 200 μg", "value": 9, "unit": "%"}, {"measurement": "percent agglomerates, size 3", "setting": "[5]; 200 μg", "value": 1, "unit": "%"}, {"measurement": "percent agglomerates, size 4", "setting": "[5]; 200 μg", "value": 0, "unit": "%"}, {"measurement": "percent agglomerates, size 5", "setting": "[5]; 200 μg", "value": 0, "unit": "%"}, {"measurement": "percent agglomerates, size 6", "setting": "[5]; 200 μg", "value": 0, "unit": "%"}, {"measurement": "percent agglomerates, size 7", "setting": "[5]; 200 μg", "value": 0, "unit": "%"}, {"measurement": "percent agglomerates, size 8", "setting": "[5]; 200 μg", "value": 0, "unit": "%"}, {"measurement": "percent agglomerates, size 9", "setting": "[5]; 200 μg", "value": 0, "unit": "%"}, {"measurement": "percent agglomerates, size 10", "setting": "[5]; 200 μg", "value": 0, "unit": "%"}, {"measurement": "percent agglomerates, size 11", "setting": "[5]; 200 μg", "value": 0, "unit": "%"}, {"measurement": "percent agglomerates, size 12", "setting": "[5]; 200 μg", "value": 0, "unit": "%"}, {"measurement": "percent agglomerates, size 13", "setting": "[5]; 200 μg", "value": 0, "unit": "%"}, {"measurement": "percent free red corpuscles (size of agglomerates 1)", "setting": "[5]; 200 μg", "value": 90, "unit": "%"}]}, {"smiles": "CN1Cc2ccsc2CC1C(=O)O", "note": "(centres unmarked) [Example 25, 5-Methyl-6-carboxy-4,5,6,7-tetrahydro-thieno[3,2-c]pyridine]", "values": [{"measurement": "LD50 at 24 h", "setting": "[1]", "value": 325, "unit": "mg/kg"}, {"measurement": "inhibition at 100 mg/kg", "setting": "[2]", "value": 61.6, "unit": "%"}, {"measurement": "inhibition at 100 mg/kg", "setting": "[3]", "value": 92.4, "unit": "%"}]}]}
